Test results taken from patent publication US8426420B2, “Heterocyclic pyrazole-carboxamidesas P2Y12 antagonists” (Sanofi, priority 2007, dated 2013).

Key:
human P2Y12 receptor = human P2Y12 receptor (Homo sapiens, UniProt Q9H244); experiment: Human P2Y12 recombinant cell membrane binding assay with 33P 2MeS-ADP; settings: competition against 33P 2MeS-ADP, membranes of CHO cells with recombinant human P2Y12 receptor
Protocol: The ability of the compounds of the formula Ito inhibit the P2Y12 receptor can be assessed by determining the concentration of the compound of the formula I that binds to the human P2Y12 Recombinant Cell Membrane Binding Assay with 33P 2MeS-ADP.
Human P2Y12 Recombinant Cell Membrane Binding Assay
The ability of a test compound to bind to the P2Y12 receptor was evaluated in a recombinant cell membrane binding assay. In this competitive binding assay, the test compound competed against a radiolabeled agonist for binding to the P2Y12 receptor, expressed on the cell membrane. Inhibition of binding of the labeled material was measured and correlated to the amount and potency of the test compound. This binding assay is a modification of the procedure described by Takasaki, J. et. al, Mol. Pharmacol., 2001, Vol. 60, pg. 432. A membrane preparation was prepared from Chinese Hamster Ovary (CHO) cells with recombinant expression of the human P2Y12 receptor according to standard procedures as a source of P2Y12.
To a 96-well microtiterplate the following were added: a) 24 μl of assay buffer (10 mM HEPES, 138 mM NaCl, […] KCl, 12 mM NaHCO3, 1 mM EDTA-Na, 0.1% BSA, pH 7.4) b) 1 μL compound in DMSO c) 50 μL P2Y12 CHO membrane (20 μg/ml) and after 15 min at RT d) 25 μL of 1.61 nM 33P 2MeS-ADP (Perkin Elmer NEN custom synthesis, specific activity ˜2100 Ci/mmol) made in assay buffer.
After 20 min incubation at RT samples were transferred to 96-well microtiter filterplates (Millipore HTS GF/B), pre-wetted for 20 min with 300 μL of stop buffer (10 mM HEPES, 138 mM NaCl pH 7.4) and then filtered through completely with a Millipore plate vacuum. Next, wells were washed four times with 400 μl/well of stop buffer on a plate vacuum. The plate was disassembled and allowed to air dry overnight with the filter side up over night. The filter plates were snapped into adapter plates and 0.1 mL of Microscint 20 Scintillation Fluid (Perkin Elmer #6013621) was added to each well. The top of the filterplate was sealed with plastic plate covers. The sealed filterplate were incubated 2 hours at RT. A Microbeta Scintillation Counter was used to measure counts.
Compounds were diluted as 10 mM DMSO stocks and tested in a four-point, five-fold dilution series run in triplicate beginning at 10 μM, final concentration. Data were analyzed using a four-parameter curve fit with a fixed minimum and maximum experimentally defined as the average positive and negative controls on each plate.

[1] = test system: human platelet rich plasma; experiment: Inhibition of human platelet aggregation, 96-well assay; type: cell-based
Protocol: Inhibition of Human Platelet Aggregation
Alternatively to a binding assay which measures a compound's ability to bind to the P2Y12 receptor, the effect on cellular function was also determined. This ability of the compound was evaluated in two platelet aggregation assays: in 96-well plates and with the “Born”-method using single cuvettes.
Whole blood was collected from healthy volunteers using 20 ml syringes containing 2 ml of ACD-A Aqua-Citrat-Dextrose-A, Fresenius). The anticoagulated whole blood was transferred into 15 ml polypropylene conical tubes (10 ml per tube). The tubes were centrifuged for 15 minutes at 150×g at RT without using the centrifuge brake. This procedure leads to a pellet of cellular components and a supernatant of platelet rich plasma (PRP). The PRP layer was collected from each tube and pooled for each donor. To avoid carry over of cellular components following centrifugation, approximately 5 ml of PRP was left in the tube. The platelet concentration was determined using a Coulter Counter.
The 15 ml tubes containing the pellet of cellular components were centrifuged again for 10 minutes at 1940×g. This pelleted out most particulate blood constituents remaining, leaving a layer of Platelet Poor Plasma (PPP). The PPP was collected for each donor. The PRP layer, previously set aside, was diluted with PPP to a final concentration of approximately 3×E8 platelets/ml with the PPP.
The human platelet aggregation assay is performed in 96-well plates using a microtiter plate reader (SpectraMax Plus 384 with SoftMax Pro software from Molecular Devices). In the plate 15 μl of test compound at 10× final concentration in NaCl is mixed with 120 μl fresh PRP and incubated for 5 minutes. Following that incubation period, 15 μl of 40 μM ADP is added to the reaction mix. This addition of ADP is sufficient to induce aggregation in the absence of an inhibitor. The plates are then transferred to the microplate reader and aggregation is measured over 20 minutes. The instrument settings include:
Absorbance at 650 nm, run time 20 minutes with readings in 1-minute intervals and 50 seconds shaking between readings all performed at 37° C.

Sequence of human P2Y12 receptor (Q9H244 whole entry): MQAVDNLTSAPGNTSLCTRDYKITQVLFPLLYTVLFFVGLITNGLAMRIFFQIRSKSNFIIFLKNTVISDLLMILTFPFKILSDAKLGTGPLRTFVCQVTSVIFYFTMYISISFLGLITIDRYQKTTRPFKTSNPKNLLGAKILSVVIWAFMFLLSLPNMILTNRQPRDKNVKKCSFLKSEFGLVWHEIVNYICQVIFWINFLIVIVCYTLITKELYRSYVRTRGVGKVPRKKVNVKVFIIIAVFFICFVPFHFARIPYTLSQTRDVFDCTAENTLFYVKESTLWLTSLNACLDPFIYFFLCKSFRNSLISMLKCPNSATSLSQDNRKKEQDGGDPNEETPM

Structure (SMILES)	IC50 (human P2Y12 receptor)	IC50 ([1]; Homo sapiens, Platelet, 20 min)	IC50 ([1]; ADP-induced aggregation, human platelet rich plasma, 96-well plates, AUC of absorbance over 20 minutes)
CCOC(=O)N1CCN(C(=O)[C@H](CCC(=O)O)NC(=O)c2cc(OCC(=O)N3CCC[C@H]3C(=O)NC3CCC3)n(-c3ccccc3)n2)CC1 [Example 5]	19 nM	30 nM	–
CCOC(=O)N1CCN(C(=O)[C@H](CCC(=O)O)NC(=O)c2cc(OCC(=O)N3CCC[C@H]3C(=O)N3CCCCC3)n(-c3ccccc3)n2)CC1 [Example 18, 4-{(S)-4-Carboxy-2-[(5-{2-oxo-2-[(S)-2-(piperidine-1-carbonyl)-pyrrolidin-1-yl]-ethoxy}-1-phenyl-1H-pyrazole-3-carbonyl)-amino]-butyryl}-piperazine-1-carboxylic acid ethyl ester]	146 nM	70 nM	–
CCOC(=O)N1CCN(C(=O)[C@H](CCC(=O)O)NC(=O)c2cc(OCC(=O)N3CCC[C@H]3C(=O)NC3CC3(F)F)n(-c3ccccc3)n2)CC1 (stereo partly drawn) [Example 21, 4-{(S)-4-Carboxy-2-[(5-{2-[(S)-2-(2,2-difluoro-cyclopropylcarbamoyl)-pyrrolidin-1-yl]-2-oxo-ethoxy}-1-phenyl-1H-pyrazole-3-carbonyl)-amino]-butyryl}-piperazine-1-carboxylic acid ethyl ester]	32 nM	62 nM	–
CCOC(=O)N1CCN(C(=O)[C@H](CCC(=O)O)NC(=O)c2cc(OCC(=O)N3CC[C@H]3C(=O)NC3CCC3)n(-c3ccccc3)n2)CC1 [Example 41, 4-[(S)-4-Carboxy-2-({5-[2-((S)-2-cyclobutylcarbamoyl-azetidin-1-yl)-2-oxo-ethoxy]-1-phenyl-1H-pyrazole-3-carbonyl}-amino)-butyryl]-piperazine-1-carboxylic acid ethyl ester]	109 nM	80 nM	–
CCOC(=O)N1CCN(C(=O)[C@H](CC(=O)O)NC(=O)c2cc(OCC(=O)N3CCC[C@H]3C(=O)NCC(F)(F)F)n(-c3ccccc3)n2)CC1 [Example 58, 4-{(S)-3-Carboxy-2-[(5-{2-[(S)-2-(2,2,2-trifluoro-ethylcarbamoyl)-pyrrolidin-1-yl]-2-oxo-ethoxy}-1-phenyl-1H-pyrazole-3-carbonyl)-amino]-propionyl}-piperazine-1-carboxylic acid ethyl ester]	96 nM	60 nM	–
CCOC(=O)N1CCN(C(=O)[C@H](CCC(=O)O)NC(=O)c2cc(OCC(=O)N3CCC[C@H]3C(=O)NC3CC3)n(-c3cccc(F)c3)n2)CC1 [Example 71, 4-((S)-4-Carboxy-2-{[5-[2-((S)-2-cyclopropylcarbamoyl-pyrrolidin-1-yl)-2-oxo-ethoxy]-1-(3-fluoro-phenyl)-1H-pyrazole-3-carbonyl]-amino}-butyryl)-piperazine-1-carboxylic acid ethyl ester]	192 nM	710 nM	–
CCOC(=O)N1CCN(C(=O)[C@H](CCC(=O)O)NC(=O)c2cc(OCC(=O)N3CCC[C@H]3C(=O)NCC3CC3)n(-c3cccc(F)c3)n2)CC1 [Example 74, 4-((S)-4-Carboxy-2-{[5-[2-((S)-2-cyclopropylmethylcarbamoyl-pyrrolidin-1-yl)-2-oxo-ethoxy]-1-(3-fluoro-phenyl)-1H-pyrazole-3-carbonyl]-amino}-butyryl)-piperazine-1-carboxylic acid ethyl ester]	182 nM	260 nM	–
CCOC(=O)N1CCN(C(=O)[C@H](CCC(=O)O)NC(=O)c2cc(OCC(=O)N3CCC[C@H]3C(=O)NCC(F)F)n(-c3cccc(F)c3)n2)CC1 [Example 76, 4-((S)-4-Carboxy-2-{[5-[2-((S)-2-(2,2-difluoroethylcarbamoyl)-pyrrolidin-1-yl)-2-oxo-ethoxy]-1-(3-fluoro-phenyl)-1H-pyrazole-3-carbonyl]-amino}-butyryl)-piperazine-1-carboxylic acid ethyl ester]	28 nM	170 nM	–
CCOC(=O)N1CCN(C(=O)[C@H](CC(=O)O)NC(=O)c2cc(OCC(=O)N3CCC[C@H]3C(=O)NCC3CC3)n(-c3cccc(F)c3)n2)CC1 [Example 77, 4-((S)-3-Carboxy-2-{[5-[2-((S)-2-cyclopropylmethyl-carbamoyl-pyrrolidin-1-yl)-2-oxo-ethoxy]-1-(3-fluoro-phenyl)-1H-pyrazole-3-carbonyl]-amino}-propionyl)-piperazine-1-carboxylic acid ethyl ester]	28 nM	–	160 nM
CCOC(=O)N1CCN(C(=O)[C@H](CCC(=O)O)NC(=O)c2cc(OCC(=O)N3CCC[C@H]3C(=O)NC3CCC3)n(-c3ccc(F)c(F)c3)n2)CC1 [Example 83, 4-((S)-4-Carboxy-2-{[5-[2-((S)-2-cyclobutylcarbamoyl-pyrrolidin-1-yl)-2-oxo-ethoxy]-1-(3,4-difluoro-phenyl)-1H-pyrazole-3-carbonyl]-amino}-butyryl)-piperazine-1-carboxylic acid ethyl ester]	31 nM	120 nM	–
CCOC(=O)N1CCN(C(=O)[C@H](CCC(=O)O)NC(=O)c2cc(OCC(=O)N3CCC[C@H]3C(=O)NCC3CC3)n(-c3ccc(F)c(F)c3)n2)CC1 [Example 84, 4-((S)-4-Carboxy-2-{[5-[2-((S)-2-cyclopropylmethylcarbamoyl-pyrrolidin-1-yl)-2-oxo-ethoxy]-1-(3,4-difluoro-phenyl)-1H-pyrazole-3-carbonyl]-amino}-butyryl)-piperazine-1-carboxylic acid ethyl ester]	92 nM	550 nM	–
CCOC(=O)N1CCN(C(=O)[C@H](CNC(C)=O)NC(=O)c2cc(OCC(=O)N3CCC[C@H]3C(=O)NC3CCC3)n(-c3ccccc3)n2)CC1 [Example 87, 4-[(S)-3-Acetylamino-2-({5-[2-((S)-2-cyclobutylcarbamoyl-pyrrolidin-1-yl)-2-oxo-ethoxy]-1-phenyl-1H-pyrazole-3-carbonyl}-amino)-propionyl]-piperazine-1-carboxylic acid ethyl ester]	184 nM	1130 nM	–
CCOC(=O)N1CCN(C(=O)[C@H](CCNC(C)=O)NC(=O)c2cc(OCC(=O)N3CCC[C@H]3C(=O)NC3CCC3)n(-c3ccccc3)n2)CC1 [Example 92, 4-[(S)-4-Acetylamino-2-({5-[2-((S)-2-cyclobutylcarbamoyl-pyrrolidin-1-yl)-2-oxo-ethoxy]-1-phenyl-1H-pyrazole-3-carbonyl}-amino)-butyryl]-piperazine-1-carboxylic acid ethyl ester]	109 nM	1130 nM	–
CCOC(=O)N1CCN(C(=O)[C@H](CCCCOC(C)=O)NC(=O)c2cc(OCC(=O)N3CCC[C@H]3C(=O)NC3CCC3)n(-c3ccccc3)n2)CC1 [Example 237, 4-[(S)-6-Acetoxy-2-({5-[2-((S)-2-cyclobutylcarbamoyl-pyrrolidin-1-yl)-2-oxo-ethoxy]-1-phenyl-1H-pyrazole-3-carbonyl}-amino)-hexanoyl]-piperazine-1-carboxylic acid ethyl ester]	30 nM	–	–
CCCCOC(=O)N1CCN(C(=O)[C@H](CC(F)(F)F)NC(=O)c2cc(OCC(=O)N3CCC[C@H]3C(=O)NC3CCC3)n(-c3ccccc3)n2)CC1 [Example 274, 4-[(S)-2-({5-[2-((S)-2-Cyclobutylcarbamoyl-pyrrolidin-1-yl)-2-oxo-ethoxy]-1-phenyl-1H-pyrazole-3-carbonyl}-amino)-4,4,4-trifluoro-butyryl]-piperazine-1-carboxylic acid butyl ester]	36 nM	–	–
